The source of these data is PubChem BioAssay AID1259334 (Broad Institute, 2017).

The source made the active and inactive calls. Rule as the data show it: active = AC50 below about 11 µM.

A short description of test [1]: TNFa signaling inhibitors in B cell line, dose response, counter-screen (AID 1259334).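 Also: cells stimulated with TNFa after compound preincubation.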 The conditions noted are these: B cell line, TNFa signaling counterscreen reporter, hits give low values. Background: A counterscreen serves to expose hits that act by an unwanted route or on another target.
Test [2] relates to B cell line, TNFa signaling counterscreen reporter. The test is described as above.

The term AC50 denotes the concentration giving half of the maximal activity seen.

As for `O=C(c1ccc(F)cc1)N1C[C@@H]2N[C@H](C1)C2c1ccc(/C=C/c2ccccc2)cc1` (stereo not given in full), in test [1] (at 3.5 µM), the max activity is 10.7% (inactive). Moreover, in test [2], the AC50 was 7.15 µM. Consider `C[C@@H]1CN([C@@H](C)CO)C(=O)Cc2cc(NC(=O)Cc3cn(C)c4ccccc34)ccc2O[C@H]1CN(C)Cc1ccc(C(F)(F)F)cc1`, for which the max activity in test [1] (at 0.0046 µM) is 14% (inactive). On to `COc1ccc(S(=O)(=O)N(C)C[C@H]2Oc3ccc(NC(=O)Nc4ccc(C(F)(F)F)cc4)cc3C(=O)N([C@@H](C)CO)C[C@H]2C)cc1`, for which the max activity in test [1] (at 0.042 µM) was 15.2% (inactive). In the case of `Cc1ccc(-c2nn3c(C)nnc3c3ccccc23)cc1S(=O)(=O)NCc1ccccc1`, the max activity in test [1] (at 0.0015 µM) is 9.48% (inactive). As for `C[C@@H]1CN([C@H](C)CO)C(=O)c2c(c3ccccc3n2C)-c2ccccc2CO[C@@H]1CN(C)S(=O)(=O)c1ccccc1C#N`, the max activity in test [1] (at 0.11 µM) is 17.1% (inactive). On to `C[C@@H]1CN([C@H](C)CO)C(=O)Cc2cc(NC(=O)Cc3cn(C)c4ccccc34)ccc2O[C@H]1CN(C)Cc1ccc(C(F)(F)F)cc1`, for which the max activity in test [1] (at 11 µM) was -10.7% (inactive). On to `N=C(N)c1ccc(OCCCCCOc2ccc(C(=N)N)cc2)cc1`, for which the max activity in test [1] (at 1.1 µM) is 17.9% (inactive). Turning to `O=C(CNCCO)N1N=C(c2cccs2)CC1c1cccs1` (stereo not given), in test [1] (at 3.5 µM), the max activity is -16% (inactive). Consider `COc1ccc(CN2CC3(CN(S(=O)(=O)c4ccc(C)cc4)C3)c3c([nH]c4cc(OC)ccc34)[C@H]2CO)cc1`, for which, in test [1] (at 0.042 µM), the max activity was 14.8% (inactive). With `COc1cccc(OC)c1OCCNCC1COc2ccccc2O1` (stereo not given), the max activity in test [1] (at 0.0135 µM) is 14.5% (inactive). `Cc1ccc(-c2ccccc2[C@H]2[C@@H](C#N)N(c3ncc(-c4ccccc4)s3)[C@@H]2CO)cc1`: in test [1] (at 3.5 µM), the max activity is 7.84% (inactive).

Consider `CC(C)NC(=O)N1CC(=O)N2[C@H](CO)[C@@H](c3ccc(/C=C/c4ccccc4)cc3)[C@H]2C1`, for which the max activity in test [1] (at 0.38 µM) is -8.8% (inactive).

For the compound `C[C@@H]1CN([C@@H](C)CO)C(=O)Cc2cc(NS(=O)(=O)c3ccccc3)ccc2O[C@H]1CN(C)Cc1ccc(Cl)c(Cl)c1`, the max activity in test [1] (at 0.0135 µM) was 16% (inactive). Consider `O=C(NCCC(c1ccccc1)c1ccco1)c1cccs1` (stereo not given), for which the max activity in test [1] (at 10 µM) was 46.8% (inactive). In the case of `COc1cccc(NC(=O)N2CC(=O)N3[C@H](CO)[C@@H](c4ccc(C#CCC5CCCC5)cc4)[C@H]3C2)c1`, the max activity in test [1] (at 0.12 µM) was 16.8% (inactive).

`N#C[C@H]1[C@H](c2ccc(C#Cc3ccccc3F)cc2)[C@@H](CO)N1C(=O)C1CC1`: the max activity in test [1] (at 3.5 µM) was -17.4% (inactive). Turning to `CC(=O)Nc1ccc(S(=O)(=O)c2ccc(N)cc2)cc1`, the max activity in test [1] (at 0.042 µM) was 6.36% (inactive). On to `Oc1ccc(Cc2ccccc2)c2cccnc12`, for which, in test [1] (at 0.38 µM), the max activity is -12% (inactive). Consider `COc1ccc2c3c([nH]c2c1)[C@H](CO)N(C(=O)Nc1cccc(F)c1)CC31CCN(S(=O)(=O)c2cccc(C)c2)CC1`, for which the max activity in test [1] (at 1.1 µM) was 21.6% (inactive). Turning to `c1ccc(CCSc2nccn2-c2ccccc2)cc1`, the max activity in test [1] (at 0.38 µM) is 38% (inactive). As for `O=C(C1CCC1)N1CCc2cc(S(=O)(=O)N3CCCCC3)ccc21`, the max activity in test [1] (at 3.5 µM) is -31.7% (inactive). Consider `COc1cccc(S(=O)(=O)N(C)C[C@@H]2OCc3ccccc3-c3c(n(C)c4ccccc34)C(=O)N([C@H](C)CO)C[C@H]2C)c1`, for which, in test [1] (at 0.0135 µM), the max activity is 14.6% (inactive). `C[C@]12CC[C@H](O)C[C@H]1CC[C@@H]1[C@@H]2CC[C@]2(C)[C@@H](c3ccc(=O)oc3)CC[C@]12O`: the max activity in test [1] (at 0.12 µM) was 7.82% (inactive). Take `CCN1C(=O)C(CC(=O)Nc2ccc(OC)cc2)N(CCc2ccc(F)cc2)C1=S` (stereo not given): in test [1] (at 0.0046 µM), the max activity was 4.9% (inactive).
